Data from US5684034A, “1H-indole-3-acetamide sPLA2 inhibitors” (Eli Lilly and Company, priority 1995, dated 1997).
Like-named read-outs stand apart in the source and are kept apart here.

Molecular target: T1, recombinant human secreted phospholipase A2 (Homo sapiens, UniProt P14555)
T1 sequence (P14555 21-144): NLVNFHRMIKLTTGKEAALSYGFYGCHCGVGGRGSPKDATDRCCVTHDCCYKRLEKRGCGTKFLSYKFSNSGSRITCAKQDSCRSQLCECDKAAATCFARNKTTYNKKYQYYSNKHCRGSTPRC
Test: Human secreted phospholipase A2 inhibition test (chromogenic assay, diheptanoyl thio-PC substrate)
Assay type: biochemical
Conditions: pH 7.5, 40° C., 30 minutes, 405 nm
Procedure: The following chromogenic assay procedure was used to identify and evaluate inhibitors of recombinant human secreted phospholipase A2. The assay described herein has been adapted for high volume screening using 96 well microtiter plates.
A measured volume of racetic dipheptanoyl thio PC supplied in chloroform at a concentration of 100 mg/ml is taken to dryness and redissolved in 10 millimolar TRITON X-100™ nonionic detergent aqueous solution. Reaction Buffer is added to the solution, then DTNB to give the Reaction Mixture.
The reaction mixture thus obtained contains 1 mM diheptanoly thio-PC substrate, 0.29 mm Triton X-100™ detergent, and 0.12 mm DTMB in a buffered aqueous solution at pH 7.5.
1. Add 0.2 ml reaction mixture to all wells;
2. Add 10 ul test compound (or solvent blank) to appropriate wells, mix 20 seconds:
3. Add 50 nanograms of sPLA2 (10 microliters) to appropriate wells;
4. incubate plate at 40° C. for 30 minutes;
All compounds were tested in triplicate. […] Each sample was titrated in triplicate and result values were averaged for plotting and calculation of IC50 values. […] Each IC50 value was determined three times.

[1] = read-out: Inhibition of human secreted PLA2 IC50 ± mean deviation (3-5 tests)
[2] = Inhibition of human secreted PLA2 IC50 ± mean deviation (3-5 tests)

| SMILES | IC50 [1] [nM] | also measured |
| --- | --- | --- |
| COc1ccc2c(c1)c(CC(N)=O)c(C)n2Cc1ccc(OCc2ccccc2)cc1 [Example 7, 1-[(4-Benzyloxyphenyl)methyl]-5-methoxy-2-methyl-1H-indole-3-acetamide] | 5450 ± 1620 |  |
| Cc1c(CC(N)=O)c2cc(O)ccc2n1Cc1ccccc1 [Example 2, 5-Hydroxy-2-methyl-1-(phenylmethyl)-1H-indole-3-acetamide] |  | IC50 [2]: 840 ± 380 nM |
| CCOC(=O)CCCCOc1ccc2c(CC(N)=O)c(C)n(Cc3ccccc3)c2c1 [Example 33, 5-[[3-(2-Amino-2-oxoethyl)-2-methyl-1-(phenylmethyl)-1H-indol-6-yl]oxy]pentanoic acid ethyl ester] |  | IC50 [2]: 300 ± 120 nM |
| COc1ccc2c(c1)c(CC(N)=O)c(C)n2Cc1ccccn1 [Example 8, 5-Methoxy-2-methyl-1-[(2-pyridyl)methyl]-1H-indole-3-acetamide] | 21400 ± 8550 |  |
| Cc1ccc2c(CC(N)=O)c(C)n(Cc3ccccc3)c2c1 [Example 1, 2,6-Dimethyl-1-(phenylmethyl)-1H-indole-3-acetamide] | 1330 ± 450 |  |
| C=CCc1c(O)ccc2c1c(CC(N)=O)c(CC)n2Cc1ccccc1 [Example 93, 4-Allyl-2-ethyl-5-hydroxy-1-(phenylmethyl)-1H-indole-acetamide] |  | IC50 [2]: 140 ± 40 nM |
| COC(=O)CCOc1ccc2c(c1)c(CC(N)=O)c(C)n2Cc1ccccc1 [Example 20, 3-[[3-(2-Amino-2-oxoethyl)-2-methyl-1-(phenylmethyl)-1H-indol-5-yl]oxy]-propanic acid methyl ester] | 1050 ± 110 |  |
| NC(=O)Cc1c(Br)n(Cc2ccccc2)c2ccc(OCCCC(=O)O)cc12 [Example 43, 4-[[3-(2-Amino-2-oxoethyl)-2-bromo-1-(phenylmethyl)-1H-indol-5-yl]oxy]butanoic acid] | 70 ± 30 |  |
| COP(=O)(O)CCCOc1ccc2c(c1)c(CC(N)=O)c(Br)n2Cc1ccccc1 [Example 87] |  | IC50 [2]: 72 ± 17 nM |
| CCOC(=O)CCCOc1cccc2c1c(CC(N)=O)c(C)n2Cc1ccccc1 [Example 37, 4-[[3-(2-Amino-2-oxoethyl)-2-methyl-1-(phenylmethyl)-1H-indol-4-yl]oxy]butanoic acid ethyl ester] | 9440 ± 1440 |  |
| NC(=O)Cc1c(Cl)n(Cc2ccccc2)c2ccc(OCCCC(=O)O)cc12 [Example 24, 4-[[3-(2-Amino-2-oxoethyl)-2-chloro-1-(phenylmethyl)-1H-indole-5-yl]oxy]butanoic acid] |  | IC50 [2]: 60 ± 20 nM |
| Cc1c(CC(N)=O)c2ccc(OCCCC(=O)O)cc2n1Cc1ccccc1 [Example 32, 4-[[3-(2-Amino-2-oxoethyl)-2-methyl-1-(phenylmethyl)-1H-indol-6-yl]oxy]butanoic acid] | 12200 ± 550 |  |
| COP(=O)(CCCOc1ccc2c(c1)c(CC(N)=O)c(Br)n2Cc1ccccc1)OC [Example 86, [3-[[3-(2-Amino-2-oxoethyl)-2-bromo-1-(phenylmethyl)-1H-indol-5-yl]oxy]propane]phosphonic acid dimethyl ester] |  | IC50 [2]: 420 ± 210 nM |
| CCc1c(CC(N)=O)c2cc(OCCCC(N)=O)ccc2n1Cc1ccccc1 [Example 60, 5-(4-Amino-4-oxobutoxy)-2-ethyl-1-(phenylmethyl)-1H-indole-3-acetamide] | 104 ± 17 |  |
| CCc1c(CC(N)=O)c2cc(OCCCC(=O)NN)ccc2n1Cc1ccccc1 [Example 59] | 74 |  |
| NC(=O)Cc1cn(Cc2ccccc2)c2ccc(O)cc12 [Example 82, 5-Hydroxy-1-(phenylmethyl)-1H-indole-3-acetamide] | 3680 ± 190 |  |
| Cc1c(CC(N)=O)c2cc(OCCC(=O)O)ccc2n1Cc1ccccc1 [Example 21, 3-[[3-(2-Amino-2-oxoethyl)-2-methyl-1-(phenylmethyl)-1H-indol-5-yl]oxy]-propanic acid] |  | IC50 [2]: 430 ± 230 nM |

| SMILES | IC50 [1] [nM] | also measured |
| --- | --- | --- |
| Cc1c(CC(N)=O)c2cc(OCc3cccc(C(=O)O)c3)ccc2n1Cc1ccccc1 [Example 101, 3-[[[3-(2-Amino-2-oxoethyl)-2-methyl-1-(phenylmethyl)-1H-indol-5-yl]oxy]methyl]benzoic acid] | 1890 ± 500 |  |
| CCc1c(CC(N)=O)c2cc(O)ccc2n1Cc1ccccc1 [Example 56, 2-Ethyl-5-hydroxy-1-(phenylmethyl)-1H-indole-3-acetamide] | 340 ± 100 |  |
| COc1ccc2c(c1)c(CC(N)=O)cn2Cc1ccccc1 [Example 3, 5-Methoxy-1-(phenylmethyl)-1H-indole-3-acetamide] | 3700 ± 2820 |  |
| CCc1c(CC(N)=O)c2c(OCC(=O)O)cccc2n1Cc1cccc(Cl)c1 [Example 75, 2-[[3-(2-Amino-2-oxoethyl)-1-[(3-chlorophenyl)methyl]-2-ethyl-1H-indol-4-yl]oxy]acetic acid] | 39 ± 4 |  |
| CCOC(=O)CCCOc1ccc2c(CC(N)=O)c(C)n(Cc3ccccc3)c2c1 [Example 31, 4-[[3-(2-Amino-2-oxoethyl)-2-methyl-1-(phenylmethyl)-1H-indol-6-yl]oxy]butanoic acid ethyl ester] | 450 ± 80 |  |
| CSc1c(CC(N)=O)c2cc(OCCCC(=O)O)ccc2n1Cc1ccccc1 [Example 46, 4-[[3-(2-Amino-2-oxoethyl)-2-(methylthio)-1-(phenylmethyl)-1H-indol-5-yl]oxy]butanoic acid] |  | IC50 [2]: 160 ± 190 nM |
| CCCCCCCCCCCCCCn1c(C)c(CC(N)=O)c2cc(OCCCC(=O)O)ccc21 [Example 49] | 470 ± 50 |  |
| CSc1c(CC(N)=O)c2cc(OCCCC(N)=O)ccc2n1Cc1ccccc1 [Example 47, 5-(4-Amino-4-oxobutoxy)-2-(methylthio)-1-(phenylmethyl)-1H-indole-3-acetamide] |  | IC50 [2]: 90 ± 60 nM |
| CCOC(=O)CCCOc1ccc2c(c1)c(CC(N)=O)c(CC)n2Cc1ccccc1 [Example 57] | 1270 |  |
| Cc1c(CC(N)=O)c2cc(O)ccc2n1Cc1cccc(Cl)c1 [Example 70, 1-[(3-Chlorophenyl)methyl]-5-hydroxy-2-methyl-1H-indole-3-acetamide] | 5880 ± 1170 |  |
| Cc1c(CC(N)=O)c2cc(OCc3ccccc3)ccc2n1Cc1ccccc1 [Example 13, 5-Benzyloxy-2-methyl-1-(phenylmethyl)-1H-indole-3-acetamide] | 920 ± 240 |  |
| Cc1c(CC(N)=O)c2cc(C(N)=O)ccc2n1Cc1ccccc1 [Example 15, 5-Aminocarbonyl-2-methyl-1-(phenylmethyl)-1H-indole-3-acetamide] | 1510 ± 580 |  |
| COc1ccc2c(c1)c(CC(N)=O)c(Br)n2Cc1ccccc1 [Example 42, 2-Bromo-5-methoxy-1-(phenylmethyl)-1H-indole-3-acetamide] | 230 ± 60 |  |
| CCc1c(CC(N)=O)c2cc(OCc3ccccc3C(=O)O)ccc2n1Cc1ccccc1 [Example 99, 2-[[[3-(2-Amino-2-oxoethyl)-2-ethyl-1-(phenylmethyl)-1H-indol-5-yl]oxy]methyl]benzoic acid] | 540 ± 180 |  |
| CSc1c(CC(N)=O)c2cc(O)ccc2n1Cc1ccccc1 [Example 44, 5-Hydroxy-2-(methylthio)-1-(phenylmethyl)-1H-indole-3-acetamide] |  | IC50 (unit printed aM, read-out: Inhibition of human secreted PLA2 IC50 ± mean deviation (3-5 tests)): 380 ± 140 nM |
| CCc1c(CC(N)=O)c2cc(OCCCP(=O)(O)OC)ccc2n1Cc1ccccc1 [Example 63, [3-[[3-(2-Amino-2-oxoethyl)-2-ethyl-1-(phenylmethyl)-1H-indol-5-yl]oxy]propyl]phosphonic acid monomethyl ester] |  | IC50 [2]: 39 ± 5 nM |
| COc1cccc2c1c(CC(N)=O)c(C)n2Cc1ccccc1 [Example 35, 4-Methoxy-2-methyl-1-(phenylmethyl)-1H-indole-3-acetamide] | 2360 ± 150 |  |
